From US20240158446A1, “CYCLIC COMPOUND HAVING SELECTIVE INHIBITORY ACTION ON KRAS OVER HRAS AND NRAS” (CHUGAI SEIYAKU KABUSHIKI KAISHA, priority 2021, published 2024) come the findings set out here.

Read-outs that look alike come from different tables or passages of the source. Where a SMILES comes first, the peptide text is derived from it. Bridges are numbered along the chain shown (N, C = ends). [ ]: non-standard residue; d: D form. The star is where a group is joined. hPhe(3-Cl-4-CF3) = N[C@@H](CCc1ccc(C(F)(F)F)c(Cl)c1)C(=O)O; NPrPhe(4-CF3) = CCCN[C@@H](Cc1ccc(C(F)(F)F)cc1)C(=O)O; NPrPhe(4-Me) = CCCN[C@@H](Cc1ccc(C)cc1)C(=O)O; NEtPhe(4-Me) = CCN[C@@H](Cc1ccc(C)cc1)C(=O)O; NMeGly(cPent) = CN[C@H](C(=O)O)C1CCCC1; Pro(4,4-Me2) = CC1(C)CN[C@H](C(=O)O)C1; Gly(cPent) = N[C@H](C(=O)O)C1CCCC1; NMeD = CN[C@@H](CC(=O)O)C(=O)O; NMeL = CN[C@@H](CC(C)C)C(=O)O; NMeV = CN[C@H](C(=O)O)C(C)C; Pip = O=C(O)[C@@H]1CCCCN1; Morpholide = C1CN(*)CCO1; Ac5c = NC1(C(=O)O)CCCC1; Aze = O=C(O)[C@@H]1CCN1; Sar = CNCC(=O)O

Usually IC50 stands for the concentration that gives 50% inhibition.

Experiment [1] deals with GDP-bound NRAS wild-type protein (Homo sapiens, UniProt P01111). As to the kind of experiment: Binding to NRAS by surface plasmon resonance (SPR), Single Cycle Kinetics. To be noted: SPR; for NRAS/KRAS (ratio of KD value with respect to NRAS to KD value with respect to KRAS) / NRAS/KRAS (ratio of KD value for NRAS to KD value for KRAS): GDP-bound NRAS wild-type protein vs GDP-bound KRAS wild-type protein. For orientation: Surface plasmon resonance follows binding to a sensor surface in real time, without labels.
Chain of GDP-bound NRAS wild-type protein (P01111 whole entry): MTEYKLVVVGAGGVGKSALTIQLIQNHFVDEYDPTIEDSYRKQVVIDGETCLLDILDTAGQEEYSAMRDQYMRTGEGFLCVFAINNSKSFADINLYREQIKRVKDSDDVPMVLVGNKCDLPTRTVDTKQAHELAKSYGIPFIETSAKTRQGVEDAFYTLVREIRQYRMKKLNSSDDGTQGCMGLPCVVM

Experiment [2] has as its target GDP-bound HRAS wild-type protein (Homo sapiens, UniProt P01112). As to the kind of experiment: Binding to HRAS by surface plasmon resonance (SPR), Single Cycle Kinetics. Particulars: SPR; for HRAS/KRAS (ratio of KD value with respect to HRAS to KD value with respect to KRAS) / HRAS/KRAS (ratio of KD value for HRAS to KD value for KRAS): GDP-bound HRAS wild-type protein vs GDP-bound KRAS wild-type protein.

Experiment [3] concerns human lung cancer strain NCI-H441.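 Further: cell proliferation inhibition after four days measured by CellTiter-Glo.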

Chain of GDP-bound HRAS wild-type protein (P01112 whole entry): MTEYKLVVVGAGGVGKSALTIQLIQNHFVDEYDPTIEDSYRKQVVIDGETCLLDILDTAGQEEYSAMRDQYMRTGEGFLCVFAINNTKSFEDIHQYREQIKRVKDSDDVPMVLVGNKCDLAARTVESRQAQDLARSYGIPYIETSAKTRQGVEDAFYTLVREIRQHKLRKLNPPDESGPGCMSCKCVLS

In the case of `CC[C@H](C)[C@@H]1NC(=O)[C@H](CC(C)C)N(C)C(=O)C[C@@H](C(=O)N2CCOCC2)N(C)C(=O)[C@H](C2CCCC2)N(C)C(=O)C2(CCCC2)NC(=O)[C@@H]2CCCN2C(=O)[C@H](CCc2ccc(C(F)(F)F)c(Cl)c2)NC(=O)CN(C)C(=O)[C@H](Cc2ccc(OC)cc2)N2C/C=C\CC[C@@H](C2=O)N(C)C(=O)CN(C)C1=O` [PP0609], the “NRAS/KRAS (ratio of KD value with respect to NRAS to KD value with respect to KRAS)” value in experiment [1] is “B (a compound having 3 or more and less than 10 is denoted as B)”. In experiment [2], the “HRAS/KRAS (ratio of KD value with respect to HRAS to KD value with respect to KRAS)” value is “B (a compound having 3 or more and less than 10 is denoted as B)”. For the same compound, in experiment [3], the IC50 was found to be 468 nM.

On to `CCO[C@@H]1C[C@H]2C(=O)NC3(CCC3)C(=O)N(C)[C@@H](C3CCCC3)C(=O)N(C)[C@H](C(=O)N3CCOCC3)CC(=O)N(C)[C@@H](CC(C)C)C(=O)N[C@@H]([C@@H](C)CC)C(=O)N(C)CC(=O)N(C)[C@H]3CCCCCN(C3=O)[C@@H](Cc3ccc(F)c(F)c3)C(=O)N(C)CC(=O)N[C@@H](CCc3cc(F)c(C(F)(F)F)c(F)c3)C(=O)N2C1` [PP0917], for which the “NRAS/KRAS (ratio of KD value for NRAS to KD value for KRAS)” value in experiment [1] was “B (a compound having 3 or more and less than 10 is denoted as B)”. In addition, the “HRAS/KRAS (ratio of KD value for HRAS to KD value for KRAS)” value in experiment [2] is “B (a compound having 3 or more and less than 10 is denoted as B)”. The compound further had an IC50 in experiment [3] of 25.2 nM.

For the compound `CCCN1C(=O)CN(C)C(=O)[C@@H]2CCN2C(=O)[C@H](C2CCCC2)NC(=O)[C@H](CC(C)C)N(C)C(=O)C[C@@H](C(=O)N2CCOCC2)N(C)C(=O)[C@H](C2CCCC2)N(C)C(=O)C2(CCCC2)NC(=O)[C@@H]2CCCN2C(=O)[C@H](CCc2ccc(C(F)(F)F)c(Cl)c2)NC(=O)CN(C)C(=O)[C@@H]1Cc1ccc(C(F)(F)F)cc1` [PP0306] ([NMeL][Gly(cPent)][Aze][Sar][NPrPhe(4-CF3)][Sar][hPhe(3-Cl-4-CF3)]P[Ac5c][NMeGly(cPent)][NMeD]-Morpholide; lactam N-11), in experiment [1], the “NRAS/KRAS (ratio of KD value for NRAS to KD value for KRAS)” value is “B (a compound having 3 or more and less than 10 is denoted as B)”. Moreover, the “HRAS/KRAS (ratio of KD value for HRAS to KD value for KRAS)” value in experiment [2] was “B (a compound having 3 or more and less than 10 is denoted as B)”. This compound also had an IC50 in experiment [3] of 142 nM.

With `CCO[C@@H]1C[C@H]2C(=O)NC3(CCC3)C(=O)N(C)[C@@H](C3CCCC3)C(=O)N(C)[C@H](C(=O)N(CC)CC)CC(=O)N(C)[C@@H](CC(C)C)C(=O)N[C@@H]([C@@H](C)CC)C(=O)N(C)CC(=O)N(C)[C@H]3C/C=C\CCN(C3=O)[C@@H](Cc3ccc(C)cc3)C(=O)N(C)CC(=O)N[C@@H](CCc3ccc(C(F)(F)F)c(OC)c3)C(=O)N2C1` [PP1887], the “NRAS/KRAS (KD ratio)” value in experiment [1] (ratio of KD for GDP-bound NRAS wild-type protein to KD for KRAS) was “A (a compound having 10 or more and less than 20 is denoted as A)”. Also, the “HRAS/KRAS (KD ratio)” value in experiment [2] (ratio of KD for GDP-bound HRAS wild-type protein to KD for KRAS) is “B (a compound having 3 or more and less than 10 is denoted as B)”. Besides, in experiment [3] (read-out: NCI-H441 IC50, NCI-H441 cell proliferation, 4 days, CellTiter-Glo), the IC50 amounted to 19.2 nM.

With `CCO[C@@H]1C[C@H]2C(=O)NC3(CCC3)C(=O)N(C)[C@@H](C3CCCC3)C(=O)N(C)[C@H](C(=O)N(C)C)CC(=O)N(C)[C@@H](CC)C(=O)N[C@@H]([C@@H](C)CC)C(=O)N(C)CC(=O)N(C)[C@H]3CCCCCN(C3=O)[C@@H](Cc3ccc(F)cc3Cl)C(=O)N(C)CC(=O)N[C@@H](CCc3cc(F)c(C(F)(F)F)c(F)c3)C(=O)N2C1` [PP0908], the “NRAS/KRAS (ratio of KD value for NRAS to KD value for KRAS)” value in experiment [1] was “B (a compound having 3 or more and less than 10 is denoted as B)”. Further, the “HRAS/KRAS (ratio of KD value for HRAS to KD value for KRAS)” value in experiment [2] is “B (a compound having 3 or more and less than 10 is denoted as B)”. The compound also returned an IC50 in experiment [3] of 38.5 nM.

On to `CCO[C@@H]1C[C@H]2C(=O)NC3(CCC3)C(=O)N(C)[C@@H](C3CCCC3)C(=O)N(C)[C@H](C(=O)N3CCOCC3)CC(=O)N(C)[C@@H](Cc3cscn3)C(=O)N[C@@H]([C@@H](C)CC)C(=O)N(C)CC(=O)N(C)[C@H]3CCCCCN(C3=O)[C@@H](Cc3ccc(C(F)(F)F)cc3)C(=O)N(C)CC(=O)N[C@@H](CCc3cc(F)c(C(F)(F)F)c(F)c3)C(=O)N2C1` [PP0855], for which, in experiment [1], the “NRAS/KRAS (ratio of KD value for NRAS to KD value for KRAS)” value is “B (a compound having 3 or more and less than 10 is denoted as B)”. The “HRAS/KRAS (ratio of KD value for HRAS to KD value for KRAS)” value in experiment [2] was “B (a compound having 3 or more and less than 10 is denoted as B)”. In experiment [3], half-maximal inhibition (IC50) required 114 nM.

As to `CCCN1C(=O)CN(C)C(=O)[C@@H]2CCN2C(=O)[C@H]([C@@H](C)CC)NC(=O)[C@H](CC(C)C)N(C)C(=O)C[C@@H](C(=O)N2CCOCC2)N(C)C(=O)[C@H](C2CCCC2)N(C)C(=O)C2(CCCC2)NC(=O)[C@@H]2CC(C)(C)CN2C(=O)[C@H](CCc2ccc(C(F)(F)F)c(Cl)c2)NC(=O)CN(C)C(=O)[C@@H]1Cc1ccc(C(F)(F)F)cc1` [PP0452] ([NMeL]I[Aze][Sar][NPrPhe(4-CF3)][Sar][hPhe(3-Cl-4-CF3)][Pro(4,4-Me2)][Ac5c][NMeGly(cPent)][NMeD]-Morpholide; lactam N-11), the “NRAS/KRAS (ratio of KD value with respect to NRAS to KD value with respect to KRAS)” value in experiment [1] is “B (a compound having 3 or more and less than 10 is denoted as B)”. The “HRAS/KRAS (ratio of KD value with respect to HRAS to KD value with respect to KRAS)” value in experiment [2] is “B (a compound having 3 or more and less than 10 is denoted as B)”. In experiment [3], this compound returned an IC50 of 34.1 nM.

As for `CC[C@H](C)[C@@H]1NC(=O)[C@H](CC(C)C)N(C)C(=O)C[C@@H](C(=O)N2CCOCC2)N(C)C(=O)[C@H](C(C)C)N(C)C(=O)C2(CCCC2)NC(=O)[C@@H]2CCCN2C(=O)[C@H](CCc2ccc(C(F)(F)F)c(Cl)c2)NC(=O)CN(C)C(=O)[C@H](Cc2ccc(C)cc2)N(CC)C(=O)CN(C)C(=O)CN(C)C1=O` [PP0044] ([NMeL]I[Sar][Sar][NEtPhe(4-Me)][Sar][hPhe(3-Cl-4-CF3)]P[Ac5c][NMeV][NMeD]-Morpholide; lactam N-11), the “NRAS/KRAS (ratio of KD value for NRAS to KD value for KRAS)” value in experiment [1] was “C (A compound having a KD ratio of 0.1 or more and less than 3 is denoted as C)”. For the same compound, the “HRAS/KRAS (ratio of KD value for HRAS to KD value for KRAS)” value in experiment [2] is “C (A compound having a KD ratio of 0.1 or more and less than 3 is denoted as C)”. The compound further came in with a half-inhibitory concentration (IC50) in experiment [3] of 142 nM.

With `CCCN1C(=O)[C@@H]2CCN2C(=O)[C@@H]2CCCCN2C(=O)[C@H]([C@@H](C)CC)NC(=O)[C@H](CC(C)C)N(C)C(=O)C[C@@H](C(=O)N2CCOCC2)N(C)C(=O)[C@H](C2CCCC2)N(C)C(=O)C2(CCCC2)NC(=O)[C@@H]2CCCN2C(=O)[C@H](CCc2ccc(C(F)(F)F)c(Cl)c2)NC(=O)CN(C)C(=O)[C@@H]1Cc1ccc(C)cc1` [PP0070] ([NMeL]I[Pip][Aze][NPrPhe(4-Me)][Sar][hPhe(3-Cl-4-CF3)]P[Ac5c][NMeGly(cPent)][NMeD]-Morpholide; lactam N-11), the “NRAS/KRAS (ratio of KD value for NRAS to KD value for KRAS)” value in experiment [1] is “C (A compound having a KD ratio of 0.1 or more and less than 3 is denoted as C)”. For the same compound, the “HRAS/KRAS (ratio of KD value for HRAS to KD value for KRAS)” value in experiment [2] was “B (a compound having 3 or more and less than 10 is denoted as B)”. This compound showed an IC50 in experiment [3] of 2.1 nM.

For `CCCN1C(=O)CN(C)C(=O)CN(C)C(=O)[C@H]([C@@H](C)CC)NC(=O)[C@@H]2CCCCCCC[C@@H](NC(=O)[C@@H]3C[C@@H](OCC)CN3C(=O)[C@H](CCc3cc(F)c(C(F)(F)F)c(F)c3)NC(=O)CN(C)C(=O)[C@@H]1Cc1ccc(C(F)(F)F)cc1)C(=O)N(C)[C@@H](C1CCCC1)C(=O)N(C)[C@H](C(=O)N(C)C)CC(=O)N2C` [PP0925], in experiment [1], the “NRAS/KRAS (ratio of KD value for NRAS to KD value for KRAS)” value is “A (a compound having 10 or more and less than 20 is denoted as A)”. In addition, the “HRAS/KRAS (ratio of KD value for HRAS to KD value for KRAS)” value in experiment [2] was “B (a compound having 3 or more and less than 10 is denoted as B)”. For the same compound, in experiment [3], the IC50 was 91 nM.
